“And” between values parts separate entries of the source, which are not always exact repeats. Identical values can stand only once. The source made the active and inactive calls.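 How the source made its calls: active means max delta Tm melting temperature shift above 1 degree C at some tested dose; inactive means the rest.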
The molecules below were run against Kelch-like ECH-associated protein 1 (Homo sapiens) (UniProt Q14145) (assay: thermal stabilisation of Keap1 Kelch domain – biophysical, thermal shift, RT-PCR instrument, dry powder, orthogonal assay for Keap1-Nrf2 interaction inhibitor project, dose response (AID 651829)). Settings: Recombinant Keap1 Kelch domain, Sypro Orange, at 0.08 µM, top dose 10 µM, hits give high values.
Sequence of Kelch-like ECH-associated protein 1 (Homo sapiens) (Q14145 whole entry, looked up, the tested form may be a part): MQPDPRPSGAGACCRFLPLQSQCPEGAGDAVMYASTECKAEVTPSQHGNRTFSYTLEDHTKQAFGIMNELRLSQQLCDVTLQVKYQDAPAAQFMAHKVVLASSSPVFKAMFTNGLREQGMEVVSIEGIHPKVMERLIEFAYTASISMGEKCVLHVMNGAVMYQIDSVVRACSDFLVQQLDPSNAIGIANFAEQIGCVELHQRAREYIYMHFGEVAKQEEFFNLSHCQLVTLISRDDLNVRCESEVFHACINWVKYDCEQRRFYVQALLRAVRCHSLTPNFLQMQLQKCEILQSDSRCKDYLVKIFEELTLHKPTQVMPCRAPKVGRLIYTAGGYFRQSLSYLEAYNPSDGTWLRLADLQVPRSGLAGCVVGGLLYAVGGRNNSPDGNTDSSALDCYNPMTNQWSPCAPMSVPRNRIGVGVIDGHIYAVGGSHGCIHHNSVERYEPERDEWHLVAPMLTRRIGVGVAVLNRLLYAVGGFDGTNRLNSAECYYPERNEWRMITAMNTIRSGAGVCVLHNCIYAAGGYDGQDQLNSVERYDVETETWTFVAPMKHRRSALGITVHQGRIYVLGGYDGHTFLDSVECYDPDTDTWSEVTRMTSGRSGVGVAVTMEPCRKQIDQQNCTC

| max delta Tm | Compound |
| --- | --- |
| 0.259 °C (inactive) | O=C1c2ccccc2C(=O)N1CC1c2ccccc2CCN1C(=O)Cc1ccccc1 (stereo unspecified) |

Same assay, conditions: Recombinant Keap1 Kelch domain, Sypro Orange, at 0.16 µM, top dose 38 µM, hits give high values

| max delta Tm | Compound |
| --- | --- |
| -0.037 °C (inactive) | O=C(O)c1ccccc1C(=O)NC[C@@H]1c2ccccc2CCN1C(=O)[C@@H]1CCCC[C@@H]1C(=O)O |
| 0.168 °C (inactive) | O=C(O)C1CCCCC1C(=O)N1CCc2ccccc2[C@H]1C(=O)NCCc1ccccc1 (stereo partly specified) |
| 0.132 °C (inactive) | O=C(NC[C@@H]1c2ccccc2CCN1C(=O)[C@@H]1CCCC[C@@H]1C(=O)O)c1ccccc1 |
| 0.172 °C (inactive) | O=C(O)[C@H]1CCCC[C@H]1C(=O)N1CCC2=C(CCCC2)C1CN1C(=O)c2ccccc2C1=O (stereo partly specified) |
| 0.129 °C (inactive) | O=C(O)[C@H]1CCCC[C@H]1C(=O)N1CCc2ccccc2[C@H]1CNc1nc(Cl)nc2ccccc12 |
| 0.217 °C (inactive) | O=C(NCCCN1CCOCC1)c1ccccc1C(=O)NC[C@@H]1c2ccccc2CCN1C(=O)C1CCCCC1C(=O)O (stereo partly specified) |

Continued, molecule first:

| Compound | max delta Tm |
| --- | --- |
| COC(=O)C1CCCCC1C(=O)N1CCc2ccccc2C1CN1C(=O)c2ccccc2C1=O (stereo unspecified) | 0.175 °C (inactive) |
| O=C(O)[C@H]1CCCC[C@H]1C(=O)NC(CN1C(=O)c2ccccc2C1=O)c1ccccc1 (stereo partly specified) | 0.154 °C (inactive) |
| O=C1c2ccccc2C(=O)N1C[C@@H]1c2ccccc2CCN1C(=O)OCc1ccccc1 | -0.028 °C (inactive) |
| Cc1cc(C)c(S(=O)(=O)Nc2nc(NCCO)nc3ccccc23)c(C)c1 | 0.147 °C (inactive) |
| Cc1cc(C)c(S(=O)(=O)Nc2nc(N(C)C)nc3ccccc23)c(C)c1 | 0.107 °C (inactive) |

Same assay, conditions: Recombinant Keap1 Kelch domain, Sypro Orange, at 0.3 µM, top dose 38 µM, hits give high values

| max delta Tm | Compound |
| --- | --- |
| 0.155 °C (inactive) | Cc1ccc(S(=O)(=O)NC(=O)[C@@H]2c3ccccc3CCN2C(=O)[C@@H]2CCCC[C@@H]2C(=O)O)cc1 |
| 0.052 °C (inactive) | O=C(O)C1CCCCC1C(=O)NCC1c2ccccc2CCN1C(=O)Cc1ccccc1 (stereo unspecified) |
| 0.192 °C (inactive) | COc1ccccc1CCNC(=O)[C@@H]1c2ccccc2CCN1C(=O)C1CCCCC1C(=O)O (stereo partly specified) |

Second part, the molecule before the results:

| Compound | max delta Tm |
| --- | --- |
| COC(=O)CNc1nc(NS(=O)(=O)c2c(C)cc(C)cc2C)c2ccccc2n1 | 0.26 °C (inactive) |
| Cc1ccc(S(=O)(=O)NNc2nc(C(C(=O)OC(C)C)C(=O)C(F)(F)F)nc3ccccc23)cc1 (stereo unspecified) | 0.2 °C (inactive) |
| O=S(=O)(Nc1nc(NCC2CCCCC2)nc2ccccc12)c1ccccc1 | 0.21 °C (inactive) |
| CCOC(=O)C(C(=O)OCC)c1cc(CNS(=O)(=O)c2ccc(C)cc2C)c2ccccc2n1 | 0.118 °C (inactive) |

Same assay, conditions: Recombinant Keap1 Kelch domain, Sypro Orange, at 0.6 µM, top dose 38 µM, hits give high values

| max delta Tm | Compound |
| --- | --- |
| 0.138 °C (inactive) | O=C(NC[C@@H]1c2ccccc2CCN1C(=O)[C@@H]1CCCC[C@@H]1C(=O)O)OCC1c2ccccc2-c2ccccc21 |
| 0.229 °C (inactive) | C=CC(=O)NC[C@@H]1c2ccccc2CCN1C(=O)[C@@H]1CCCC[C@@H]1C(=O)O |

Second part, the molecule before the results:

| Compound | max delta Tm |
| --- | --- |
| CC(C)CNc1nc(NS(=O)(=O)c2ccccc2)c2ccccc2n1 | 0.095 °C (inactive) |
| O=C(O)[C@H]1CCCC[C@H]1C(=O)N1CCc2ccccc2C1CCN1C(=O)c2ccccc2C1=O (stereo partly specified) | 0.157 °C (inactive) and 0.069 °C (inactive) |
| CCOC(=O)Cc1nc(NS(=O)(=O)c2c(C)cc(C)cc2C)c2ccccc2n1 | 0.029 °C (inactive) |

Same assay, conditions: Recombinant Keap1 Kelch domain, Sypro Orange, at 1.2 µM, top dose 38 µM, hits give high values

| max delta Tm | Compound |
| --- | --- |
| 0.127 °C (inactive) | CCOC(=O)C(C(=O)OCC)c1cc(CN2C(=O)c3ccccc3C2=O)c2ccccc2n1 |
| 0.172 °C (inactive) | Cc1ccc(S(=O)(=O)NNc2nc(N3CC(O)CC3C(=O)O)nc3ccccc23)cc1 (stereo unspecified) |
| 0.003 °C (inactive) | O=C1c2ccccc2C(=O)N1C[C@H]1NCCc2ccccc21 |
| -0.022 °C (inactive) | COC(=O)[C@H]1CCCC[C@H]1C(=O)N1CCc2ccccc2[C@H]1CN1C(=O)c2ccccc2C1=O |
| 0.086 °C (inactive) | Cc1cc(C)c(S(=O)(=O)Nc2ncnc3ccccc23)c(C)c1 |
| -0.023 °C (inactive) | COC(=O)[C@@H]1CCCC[C@@H]1C(=O)N1CCc2ccccc2[C@H]1CN1C(=O)c2ccccc2C1=O |

Same assay, conditions: Recombinant Keap1 Kelch domain, Sypro Orange, at 2.6 µM, top dose 38 µM, hits give high values

| max delta Tm | Compound |
| --- | --- |
| -0.05 °C (inactive) | O=C(O)C1CCCCC1C(=O)N1CCc2ccccc2[C@H]1C(=O)NC12CC3CC(CC(C3)C1)C2 (stereo partly specified) |
| -0.027 °C (inactive) | O=C(O)C1CCCCC1C(=O)N1CCCCC1CN1C(=O)c2ccccc2C1=O (stereo unspecified) |

The remaining lines, values behind:

| Compound | max delta Tm |
| --- | --- |
| O=C(Oc1cc(CN2C(=O)c3ccccc3C2=O)c2ccccc2[n+]1[O-])c1cccc(Cl)c1 | 0.062 °C (inactive) |
| Cc1cc(C)c(S(=O)(=O)Nc2nc(C(C(=O)OC(C)C)C(=O)C(F)(F)F)nc3ccccc23)c(C)c1 (stereo unspecified) | 0.113 °C (inactive) |
| O=C(O)C1CCCCC1C(=O)Nc1ccccc1CN1C(=O)c2ccccc2C1=O (stereo unspecified) | 0.138 °C (inactive) |
| COc1ccc(CCN=C2C=C(NS(=O)(=O)c3c(C)cc(C)cc3C)c3ccccc3C2=O)cc1 | 0.288 °C (inactive) |
| CCOC(=O)C(C(=O)OCC)c1nc(NS(=O)(=O)c2c(C)cc(C)cc2C)c2ccccc2n1 | 0.045 °C (inactive) |
| O=C(O)c1ccccc1C(=O)N1CCc2ccccc2C1CN1C(=O)c2ccccc2C1=O (stereo unspecified) | 0.017 °C (inactive) |

Same assay, conditions: Recombinant Keap1 Kelch domain, Sypro Orange, at 5 µM, top dose 38 µM, hits give high values

| max delta Tm | Compound |
| --- | --- |
| 0.953 °C (inactive) | CC(=O)Nc1cc(NS(=O)(=O)c2c(C)cc(C)cc2C)c2ccccc2c1O |
| -0.008 °C (inactive) | O=C1c2ccccc2C(=O)N1CC1=NCCc2ccccc21 |

Same assay, conditions: Recombinant Keap1 Kelch domain, Sypro Orange, at 10 µM, top dose 38 µM, hits give high values

| max delta Tm | Compound |
| --- | --- |
| 0.088 °C (inactive) | Cc1cc(C)c(S(=O)(=O)Nc2cc(C(C(=O)OCc3ccccc3)C(=O)OCc3ccccc3)c(O)c3ccccc23)c(C)c1 |
| -0.045 °C (inactive) | O=C(O)CC(=O)N1CCc2ccccc2C1CN1C(=O)c2ccccc2C1=O (stereo unspecified) |
| -0.003 °C (inactive) | C[C@H](NC(=O)C1CCCC[C@H]1C(=O)O)c1ccccc1 (mixture of isomers) |
| 0.13 °C (inactive) | O=C(O)CCCC(=O)N1CCc2ccccc2C1CN1C(=O)c2ccccc2C1=O (stereo unspecified) |

Same assay, conditions: Recombinant Keap1 Kelch domain, Sypro Orange, at 19.5 µM, top dose 19.5 µM, hits give high values

| max delta Tm | Compound |
| --- | --- |
| 11.4 degrees C | Cc1cc(C)c(S(=O)(=O)Nc2cc(C(C(=O)OC(C)C)C(=O)C(F)(F)F)c(O)c3ccccc23)c(C)c1 (stereo unspecified) |

Same assay, conditions: Recombinant Keap1 Kelch domain, Sypro Orange, at 19.5 µM, top dose 38 µM, hits give high values

| max delta Tm | Compound |
| --- | --- |
| 0.3 °C (inactive) | Cc1ccc(S(=O)(=O)NC2=CC(=N[C@@H](C)C(=O)OC(C)(C)C)C(=O)c3ccccc32)c(C)c1 |
| 0.102 °C (inactive) | COc1ccccc1CCNC(=O)[C@@H]1c2ccccc2CCN1C(=O)C1CCCCC1C(=O)O (stereo partly specified) |
| 0.174 °C (inactive) | Cc1ccc(S(=O)(=O)NC[C@@H]2c3ccccc3CCN2C(=O)[C@@H]2CCCC[C@@H]2C(=O)O)c(C)c1 |

Same assay, conditions: Recombinant Keap1 Kelch domain, Sypro Orange, at 38 µM, top dose 38 µM, hits give high values

| max delta Tm | Compound |
| --- | --- |
| 1.66 degrees C | O=C(Cc1ccccc1)NC[C@@H]1c2ccccc2CCN1C(=O)[C@@H]1CCCC[C@@H]1C(=O)O |
| 2.68 degrees C | Cc1ccc(S(=O)(=O)NC(=O)[C@@H]2c3ccccc3CCN2C(=O)[C@@H]2CCCC[C@@H]2C(=O)O)cc1 |
| 0.592 °C (inactive) | O=C(NC[C@@H]1c2ccccc2CCN1C(=O)[C@@H]1CCCC[C@@H]1C(=O)O)c1ccc(CN2CCOCC2)cc1 |
| 0.907 °C (inactive) | O=C(O)[C@H]1CCCC[C@H]1C(=O)N1CCc2ccccc2[C@H]1CNS(=O)(=O)c1ccc([N+](=O)[O-])cc1 |
| 1.77 degrees C | O=C(NCCO)c1ccccc1C(=O)NC[C@@H]1c2ccccc2CCN1C(=O)C1CCCCC1C(=O)O (stereo partly specified) |
| 1.92 degrees C | O=C(NC[C@@H]1c2ccccc2CCN1C(=O)[C@@H]1CCCC[C@@H]1C(=O)O)c1ccccc1CO |
| 0.368 °C (inactive) | O=C(O)[C@H]1CCCC[C@H]1C(=O)N1CCc2ccccc2[C@H]1CNS(=O)(=O)c1ccccc1 |
| 0.364 °C (inactive) | O=C(NC[C@@H]1c2ccccc2CCN1C(=O)[C@@H]1CCCC[C@@H]1C(=O)O)c1ccc(CCl)cc1 |
| 1.59 degrees C | O=C(O)C1CCCCC1C(=O)N1CCc2ccccc2C1CN1C(=O)Cc2ccccc2C1=O (stereo unspecified) |
| 2.69 degrees C | O=C(O)[C@H]1CCCC[C@H]1C(=O)N1CCC2=C(CCCC2)C1CN1C(=O)c2ccccc2C1=O (stereo partly specified) |
| 3.85 degrees C | O=C(O)C1CCCCC1C(=O)N1CCc2ccccc2C1CN1C(=O)c2ccccc2S1(=O)=O (stereo unspecified) |
| 0.771 °C (inactive) | NC(=O)c1ccccc1C(=O)NC[C@@H]1c2ccccc2CCN1C(=O)[C@@H]1CCCC[C@@H]1C(=O)O |
| 2.32 degrees C | O=C(O)C1CCCCC1C(=O)N1CCc2ccccc2C1CN1C(=O)[C@H]2CCCC[C@H]2C1=O (stereo partly specified) |
| 5.56 degrees C | O=C(O)C1CCCCC1C(=O)N1CCc2ccccc2C1CN1Cc2ccccc2C1=O (stereo unspecified) |

Second part, the molecule before the results:

| Compound | max delta Tm |
| --- | --- |
| O=C(O)Cc1ccccc1C(=O)N1CCc2ccccc2[C@H]1CN1C(=O)c2ccccc2C1=O | 4.85 degrees C |
| NC(=O)[C@H]1CCCC[C@H]1C(=O)N1CCc2ccccc2[C@H]1CN1C(=O)c2ccccc2C1=O | 1.34 degrees C |
| O=C(NCCc1ccccc1)c1ccccc1C(=O)NC[C@@H]1c2ccccc2CCN1C(=O)C1CCCCC1C(=O)O (stereo partly specified) | 2.14 degrees C |
| O=C(O)[C@H]1C2C=CC(C2)[C@H]1C(=O)N1CCc2ccccc2C1CN1C(=O)c2ccccc2C1=O (stereo partly specified) | 1.86 degrees C |
| C[C@@H](NC(=O)C1CCCC[C@H]1C(=O)O)c1ccccc1 (mixture of isomers) | 0.005 °C (inactive) |
| O=C1c2ccccc2C(=O)N1C[C@@H]1c2ccccc2CCN1C(=O)C1CCCCC1 | 0.208 °C (inactive) |
| COC(=O)C(C(=O)OC)c1cc(NS(=O)(=O)c2c(C)cc(C)cc2C)c2ccccc2c1O | 3.82 degrees C |
| Cc1ccc(S(=O)(=O)Nc2cc(C(C(=O)OC(C)C)C(=O)C(F)(F)F)c(O)c3ccccc23)cc1 (stereo unspecified) | 6.81 degrees C |
| Cc1ccccc1S(=O)(=O)Nc1cc(C(C(=O)OC(C)C)C(=O)C(F)(F)F)c(O)c2ccccc12 (stereo unspecified) | 7.77 degrees C |
| Cc1ccc(S(=O)(=O)Nc2cc(C(C(=O)OC(C)C)C(=O)C(F)(F)F)c(O)c3ccccc23)c(C)c1 (stereo unspecified) | 9.26 degrees C |
| O=C(O)CCC(=O)N1CCc2ccccc2C1CN1C(=O)c2ccccc2C1=O (stereo unspecified) | 0.462 °C (inactive) |
| CC(C)OC(=O)C(C(=O)C(F)(F)F)c1cc(NS(=O)(=O)c2ccccc2)c2ccccc2c1O (stereo unspecified) | 4.43 degrees C |
| O=C(O)/C=C\C(=O)N1CCc2ccccc2C1CN1C(=O)c2ccccc2C1=O (stereo unspecified) | 1.14 degrees C |
| O=C(O)[C@@H]1CCCN1C(=O)N1CCc2ccccc2[C@H]1CN1C(=O)c2ccccc2C1=O | 2.21 degrees C |

Source: PubChem BioAssay AID651829 (Broad Institute, 2012)
